{"source": "patent US20250144049A1", "about": "“METHODS, COMPOSITIONS, AND USES RELATED TO THE TREATMENT AND PREVENTION OF LEIGH SYNDROME” (Stealth BioTherapeutics Inc., priority 2023, published 2025)", "key": {"[1]": {"tested_on": "Healthy (GM08402) fibroblasts", "test": "RSL3 cytoprotection assay, healthy fibroblasts", "type": "cell-based, human", "description": "(§1) Patient fibroblasts were acquired from Coriell Institute for Medical Research (Camden, NJ, USA). GM03672 is an untransformed fibroblast cell line from a Leigh syndrome patient carrying an unknown mutation. GM08402 is an untransformed fibroblast from an apparently healthy individual. Cells were cultured at 37° C. at 5% CO2 in Eagle's Minimum Essential Medium (MEM, Corning), which was supplemented with Earle's salts and non-essential amino acids, 15% qualified fetal bovine serum, and 1% penicillin/streptomycin ([…]) to yield “Complete MEM.”\n(§2) To initiate the RSL3 cytoprotection experiment, Healthy (GM08402) and Leigh syndrome (GM03672) fibroblasts were resuspended in Complete MEM. Cells were seeded at 10,000 cells per well in a clear, tissue cultured-treated, 96-well plate and incubated at 37° C. overnight. Following the incubation, supernatant was manually aspirated, taking care not to disrupt cells. […]. Luminescence units were quantified by GEN5 software on a BioTek SYNERGY neo2 plate reader (LUM filter).\n(§3) RSL3 is an inhibitor of the enzyme glutathione peroxidase 4 (GPX4), which decreases lipid peroxides. RSL3 inhibition of GPX4 induces ferroptosis through iron-dependent accumulation of lipid ROS. In this assay, Healthy or Leigh fibroblasts were treated for 4 hours with RSL3 to induce ferroptosis or left untreated. Endogenous ATP levels were measured as an indicator of cellular viability using a commercially available kit (CellTiter-Glo® 2.0 Cell Viability Assay (Promega)).\n(§4) […]. […] Briefly, ferroptosis was induced with 1 μM RSL3 in healthy fibroblast cells and 375 nM RSL3 in fibroblasts from a patient with Leigh syndrome.\n(§5) A preliminary experiment was performed to determine the effect of RSL3 injury on the fibroblasts of a healthy individual (cell line: GM08402) and the fibroblasts of a patient diagnosed with Leigh syndrome (cell line: GM03672)."}, "15-lipoxygenase (15-LO) [2]": {"tested_on": "15-lipoxygenase (15-LO)", "test": "15(S)-HETE ELISA following RSL3 treatment, Leigh fibroblasts", "type": "cell-based, human", "conditions": "700 nM RSL3, 1 μM compound, FIG. 11", "description": "(§6) Samples for the 15(S)-HETE ELISA were generated by the RSL3 cytoprotection assay described above. Healthy or Leigh fibroblasts were resuspended in assay medium, seeded at 200,000 cells per well in a clear, tissue culture-treated, 24-well plate. Cells were incubated at 37° C. for 24 hours. Supernatant was aspirated from each well following the incubation.\n(§7) Fibroblasts from both a healthy individual and a patient diagnosed with Leigh syndrome were examined (but not all compounds were examined in each cell type). Activation of ferroptosis has been implicated as a driver of epilepsy, which is commonly associated with Leigh syndrome. […] Kahn-Kirby et al. PLOS One. […] As a key regulator of ferroptosis, 15-LO serves as a rational therapeutic target in Leigh syndrome."}, "[3]": {"tested_on": "rotenone-inhibited Complex I", "test": "Complex I-bypass assay (high-resolution respirometry, O2 consumption)", "type": "cell-based, human", "description": "All high-resolution respirometry experiments were conducted using the Oroboros O2k-Fluorespirometer (Oroboros, Innsbruck, Austria). The Oroboros O2k-Fluorespirometer was calibrated daily using the air calibration protocol on DatLab 7.4 (Oroboros, Innsbruck, Austria). Prior to each experiment requiring the fluorescence module, the AmpR calibration protocol from DatLab 7.4 was used to calibrate the fluorescence signal. Initial data analysis, including setting of marks, was performed using DatLab 7.4.\nComplex I-bypass activity was assessed using HRR to measure O2 consumption. […] Values were exported and analyzed using GraphPad Prism 9. […]\nStatistical analysis was performed using GraphPad Prism 9. […] RET Assay data were analyzed by 2-way ANOVA using a p-value of 0.05.\nUsing this assay, the ability of Compounds 1 to 4 and Vatiquinone to bypass rotenone-inhibited Complex I was determined. […] The ability of Compounds 1 to 4 and Vatiquinone to “bypass” Complex I and restore OXPHOS is measured by an increase in oxygen consumption rate following addition of the compound to the chamber.\nIn executing this assay, in each instance, fibroblasts are added to each chamber of the Oroboros Oxygraph-2K (the “O2k”). […] The addition of rotenone is expected to cause a marked reduction of OXPHOS as measured by a decreased rate of oxygen consumption. […]"}, "[4]": {"tested_on": "Leigh (GM03672) fibroblasts", "test": "Erastin cytoprotection assay, Leigh fibroblasts", "type": "cell-based, human", "conditions": "24 hours; for protective effect compared among test articles: 2 μM erastin, FIG. 13", "description": "(§8) Briefly, Healthy (GM08402) or Leigh (GM03672) fibroblasts were resuspended in assay medium, seeded at 10,000 cells per well in a clear, tissue cultured-treated, 96-well plate, and incubated at 37° C. overnight. Following the incubation, supernatant was manually aspirated from wells, taking care not to disrupt cells. Fibroblasts were co-treated in a final volume of 100 μL with 2 μM erastin (Millipore Corp., Cat #), 250 μM ferric ammonium citrate (FAC), 50 µM ascorbic acid (AA), and a titration of one of each of Compounds 1 to 4 or Vatiquinone ranging from 10 to 1000 nM. Following another 24-hour incubation at 37° C., cell viability was measured using the CellTiter-Glo Luminescent Cell Viability Kit (ProMega) per Manufacturer's instructions. Luminescence units were quantified by GEN5 software on a BioTek SYNERGY neo2 plate reader (LUM filter).\n(§9) Briefly, erastin, like RSL3, is known to induce ferroptosis. […] Erastin was incubated with cell fibroblasts for 24 hours to induce ferroptosis. Cells were co-treated with each of Compounds 1 to 4, or Vatiquinone as the test articles. Test articles were administered at a range of concentrations to derive a curve. Cell viability was determined using a commercially available kit that measures ATP production. […] An increase in cell viability as determined by the assay is considered to be protective against ferroptosis."}, "[5]": {"tested_on": "Healthy (GM08402) fibroblasts", "test": "Erastin cytoprotection assay, healthy fibroblasts", "type": "cell-based, human", "conditions": "24 hours; for protective effect compared among test articles: 2 μM erastin, FIG. 12", "description": "as §8, §9"}, "[6]": {"tested_on": "Leigh syndrome (GM03672) fibroblasts", "test": "RSL3 cytoprotection assay, Leigh fibroblasts", "type": "cell-based, human", "conditions": "for anti-ferroptosis properties compared among test articles: RSL3, 4 hours", "description": "as §1, §2, §3, §4, §5"}, "15-lipoxygenase (15-LO) [7]": {"tested_on": "15-lipoxygenase (15-LO)", "test": "15(S)-HETE ELISA following erastin treatment, healthy fibroblasts", "type": "cell-based, human", "conditions": "erastin + FAC + AA, FIG. 14", "description": "(§10) Samples for the 15(S)-HETE ELISA were generated by the Erastin Assay described above. Healthy or Leigh fibroblasts were resuspended in assay medium, seeded at 200,000 cells/well in a clear, tissue culture-treated, 24-well plate, and incubated at 37° C. for 24 hours. Supernatant was aspirated from each well.\n(§11) Ferroptosis was induced using erastin at 2 μM concentration. 15(S)-HETE, which is a metabolite of arachidonic acid and generated by activity of 15-LO, was measured using a commercially available ELISA kit. Data were normalized to the “No treatment” group, which represented fibroblasts that were not injured with erastin."}, "[8]": {"test": "Pharmacokinetics of Compound 2 after single intravenous, subcutaneous or oral administration", "type": "in vivo", "conditions": "rat, 1 mg/kg IV, 10 mg/kg SC, 10 mg/kg PO", "description": "• Animals: Rat/Sprague Dawley/Male/Naive 225-250 grams were received from an approved vendor. • Animals were fasted overnight prior to dose administration. Food was returned following the 2 hour sample collection. • Body weights were recorded prior to dose administration. The volume of each dose delivered (ml/kg) was based on each individual animal's body weight. • This was a single dose, serial blood collection study with tissues collected for possible future analysis. • Doses were administered in accordance with test facility standard operating procedures. […].\nb) Sample collection—Post Dosing: • Blood samples were collected via jugular vein catheter (JVC) and transferred to tubes with appropriate anticoagulant. The tubes were stored on wet ice until processed to plasma by centrifugation (3500 rpm at 5° C. for 10 minutes) within 20 minutes of collection. Sample aliquots of 100 μL were transferred into individual uniquely labeled matrix tubes containing 10 μL of 5% (v/v) formic acid aqueous solution and stored at nominal −80° C. until analyzed by LC/MS/MS. • Immediately following final serial blood collection (24 hours, JVC), animals were sacrificed and perfused with cold PBS. […]"}, "15-lipoxygenase (15-LO) [9]": {"tested_on": "15-lipoxygenase (15-LO)", "test": "15(S)-HETE ELISA following RSL3 treatment, healthy fibroblasts", "type": "cell-based, human", "conditions": "700 nM RSL3, 1 μM compound, FIG. 10", "description": "as §6, §7"}, "15-lipoxygenase (15-LO) [10]": {"tested_on": "15-lipoxygenase (15-LO)", "test": "15(S)-HETE ELISA following erastin treatment, Leigh fibroblasts", "type": "cell-based, human", "conditions": "erastin + FAC + AA, FIG. 15", "description": "as §10, §11"}, "[11]": {"conditions": "pontocerebellar hypoplasia type 6, Kahn-Kirby et al.; cited from earlier work"}, "[12]": {"conditions": "tested in the clinic; cited from earlier work"}, "[13]": {"conditions": "2 μM erastin + FAC + AA, compound 10-1000 nM"}}, "data": [{"compound": "COC1=C(OC)C(=O)C(CCCCCCCCCC(F)(F)F)=C(C)C1=O", "note": "[Compound 1]", "values": [{"measurement": "anti-ferroptosis properties compared among test articles", "setting": "[1]; 1 μM RSL3, 4 hours, FIG. 8", "result": "roughly equivalent"}, {"measurement": "15-LO inhibition compared among test articles", "setting": "15-lipoxygenase (15-LO) [2]", "result": "superior to Compounds 2, 3 and 4"}, {"measurement": "oxygen consumption rate after rotenone inhibition", "setting": "[3]; titrated into rotenone-inhibited Leigh fibroblasts, n=6", "result": "restored oxygen consumption rate in a dose-dependent manner"}, {"measurement": "protective effect compared among test articles", "setting": "[4]", "result": "about equally protective"}, {"measurement": "protective effect compared among test articles", "setting": "[5]", "result": "about equally protective"}, {"measurement": "anti-ferroptosis properties compared among test articles", "setting": "[6]; FIG. 9", "result": "roughly equivalent"}]}, {"compound": "CC1=C(C)C(=O)C(CC[C@@](C)(O)CC/C=C(\\C)CCC=C(F)F)=C(C)C1=O", "note": "[Compound 2]", "values": [{"measurement": "anti-ferroptosis properties compared among test articles", "setting": "[1]; 1 μM RSL3, 4 hours, FIG. 8", "result": "superior to Compounds 1, 4 and Vatiquinone"}, {"measurement": "15-LO inhibition compared among test articles", "setting": "15-lipoxygenase (15-LO) [2]", "result": "roughly equivalent protective effect"}, {"measurement": "protective effect compared among test articles", "setting": "[4]", "result": "superior in their protective effect"}, {"measurement": "15-LO inhibition compared among test articles", "setting": "15-lipoxygenase (15-LO) [7]", "result": "slightly less effective"}, {"measurement": "protective effect compared among test articles", "setting": "[5]", "result": "superior in their protective effect"}, {"measurement": "tolerability", "setting": "[8]", "result": "well tolerated"}, {"measurement": "delivery by mode of administration", "setting": "[8]; preliminary", "result": "effectively administered"}, {"measurement": "anti-ferroptosis properties compared among test articles", "setting": "[6]; FIG. 9", "result": "superior to Compounds 1, 4 and Vatiquinone"}, {"measurement": "inhibition of 15-lipoxygenase (15(S)-HETE in supernatant)", "setting": "15-lipoxygenase (15-LO) [9]; 24 hours", "result": "inhibited 15-lipoxygenase"}, {"measurement": "15-lipoxygenase inhibition compared among test articles", "setting": "15-lipoxygenase (15-LO) [9]", "result": "roughly equivalent protective effect"}, {"measurement": "15-LO inhibition compared among test articles", "setting": "15-lipoxygenase (15-LO) [10]", "result": "slightly less effective"}]}, {"compound": "COC(=O)c1ccc([C@H]2c3[nH]c4ccccc4c3C[C@H](C(=O)OC)N2C(=O)CCl)cc1", "note": "[RSL3, (1S,3R)-Methyl 2-(2-chloroacetyl)-2,3,4,9-tetrahydro-1-[4-(methoxycarbonyl)phenyl]-1H-pyrido[3,4-b]indole-3-carboxylate, reference compound]", "values": [{"measurement": "concentration sufficient for 25-30% killing of cells", "setting": "[1]; healthy fibroblasts, FIG. 7", "result": 1, "unit": "µM"}, {"measurement": "concentration sufficient for 25-30% killing of cells", "setting": "[6]; Leigh fibroblasts, FIG. 7", "result": 700, "unit": "nM"}]}, {"compound": "CC(C)=CCC/C(C)=C/CC/C(C)=C/CC[C@@](C)(O)CCC1=C(C)C(=O)C(C)=C(C)C1=O", "note": "[Vatiquinone, reference compound]", "values": [{"measurement": "anti-ferroptosis properties compared among test articles", "setting": "[1]; 1 μM RSL3, 4 hours, FIG. 8", "result": "roughly equivalent"}, {"measurement": "protective effect against RSL3 induced ferroptosis (cell viability, ATP)", "setting": "[1]; 1 μM RSL3, 4 hours, compound 10-1000 nM, FIG. 8", "result": "protective effect"}, {"measurement": "Complex I by-pass activity", "setting": "[3]; concentrations from 125 nM to 8 μM", "result": "inactive"}, {"measurement": "protective effect against erastin induced ferroptosis (cell viability, ATP)", "setting": "[4]; [13]", "result": "protective effect"}, {"measurement": "protective effect compared among test articles", "setting": "[4]", "result": "superior in its protective effect as compared with Compounds 1 and 4"}, {"measurement": "protective effect against erastin induced ferroptosis (cell viability, ATP)", "setting": "[5]; [13]", "result": "protective effect"}, {"measurement": "protective effect compared among test articles", "setting": "[5]", "result": "about equally protective"}, {"measurement": "seizure frequency and morbidity", "setting": "[11]", "result": "decrease seizure frequency and morbidity"}, {"measurement": "protective effect against RSL3 induced ferroptosis (cell viability, ATP)", "setting": "[6]; 375 nM RSL3, 4 hours, compound 10-1000 nM, FIG. 9", "result": "protective effect"}, {"measurement": "anti-ferroptosis properties compared among test articles", "setting": "[6]; FIG. 9", "result": "roughly equivalent"}, {"measurement": "clinical results in Leigh syndrome", "setting": "[12]", "result": "disappointing"}]}]}
